In ChEMBL document CHEMBL1150366, “Structural requirements of pyrido[2,3-d]pyrimidin-7-one as CDK4/D inhibitors: 2D autocorrelation, CoMFA and CoMSIA analyses” (Bioorg Med Chem, 2008):

test: Binding affinity to CDK4/D

| SMILES | log(10'6/IC50) |
| --- | --- |
| Cn1c(=O)ccc2cnc(Nc3ccccc3)nc21 | 2.26 |
| CCn1c(=O)ccc2cnc(Nc3ccc(N4CCN(C)CC4)cc3)nc21 | 4.07 |
| COCCn1c(=O)ccc2cnc(Nc3ccccc3)nc21 | 2.54 |
| CCn1c(=O)ccc2cnc(Nc3cccc(OC)c3)nc21 | 1.4 |
| O=c1ccc2cnc(Nc3ccccc3)nc2n1CC1CO1 (centres undefined) | 2.3 |
| CC(C)CCn1c(=O)ccc2cnc(Nc3ccccc3)nc21 | 3.8 |
| CCN(CC)CCOc1ccc(Nc2ncc3ccc(=O)n(C4CCCC4)c3n2)cc1 | 6.15 |
| CCn1c(=O)ccc2cnc(Nc3ccncc3)nc21 | 2.93 |
| CC(C)Cn1c(=O)ccc2cnc(Nc3ccccc3)nc21 | 3.53 |
| O=c1ccc2cnc(Nc3ccccc3)nc2n1CC1CCCCC1 | 1.87 |
| O=c1ccc2cnc(Nc3ccccc3)nc2n1C1CCCC1 | 3.68 |
| O=c1ccc2cnc(Nc3ccccc3)nc2n1[C@H]1C[C@H]2CC[C@H]1C2 (relative stereo) | 4.42 |
| CN1CCN(c2ccc(Nc3ncc4ccc(=O)n(CC(O)CO)c4n3)cc2)CC1 (centres undefined) | 2.78 |
| CN1CCN(c2ccc(Nc3ncc4ccc(=O)n(CCOCc5ccccc5)c4n3)cc2)CC1 | 2.68 |
| CCN(CC)CCOc1ccc(Nc2ncc3ccc(=O)n([C@H]4C[C@H]5CC[C@H]4C5)c3n2)cc1 (relative stereo) | 3.35 |
| CCn1c(=O)ccc2cnc(N(C)c3ccccc3)nc21 | 1.4 |
| CCN(CC)CCOc1ccc(Nc2ncc3ccc(=O)n(C(C)C)c3n2)cc1 | 4.35 |
| O=c1ccc2cnc(Nc3ccccc3)nc2n1C1CCCCCC1 | 3.74 |
| CCN(CC)CCOc1ccc(Nc2ncc3ccc(=O)n(CC)c3n2)cc1 | 3.8 |
| CC(C)CCn1c(=O)ccc2cnc(Nc3ccc(N4CCN(C)CC4)cc3)nc21 | 4.89 |
| COCn1c(=O)ccc2cnc(Nc3ccccc3)nc21 | 2.38 |
| CCn1c(=O)ccc2cnc(Nc3cccc(OC(F)(F)C(F)F)c3)nc21 | 2.11 |

Second part, the compound after the results:

| log(10'6/IC50) | SMILES |
| --- | --- |
| 1.51 | COC(=O)Cn1c(=O)ccc2cnc(Nc3ccccc3)nc21 |
| 3.72 | CCC(C)n1c(=O)ccc2cnc(Nc3ccccc3)nc21 (centres undefined) |
| 4.49 | CC(C)n1c(=O)ccc2cnc(Nc3ccc(N4CCN(C)CC4)cc3)nc21 |
| 2.83 | CCCCn1c(=O)ccc2cnc(Nc3ccccc3)nc21 |
| 2.28 | CCn1c(=O)ccc2cnc(NC(C)(C)C)nc21 |
| 2.85 | CCn1c(=O)ccc2cnc(Nc3cccc(F)c3)nc21 |
| 4.96 | CCN(CC)CCOc1ccc(Nc2ncc3ccc(=O)n(C4CCCCC4)c3n2)cc1 |
| 3.85 | CN1CCN(c2ccc(Nc3ncc4ccc(=O)n(C5CC5)c4n3)cc2)CC1 |
| 1.4 | CCn1c(=O)ccc2cnc(NCc3ccccc3)nc21 |
| 3.26 | CCCn1c(=O)ccc2cnc(Nc3ccccc3)nc21 |
| 2.91 | CCn1c(=O)ccc2cnc(Nc3ccc(F)cc3)nc21 |
| 4.33 | O=c1ccc2cnc(Nc3ccccc3)nc2n1C1CCCCC1 |
| 5.4 | CCN(CC)CCOc1ccc(Nc2ncc3ccc(=O)n(C4CCCCCC4)c3n2)cc1 |
| 3.23 | CCn1c(=O)ccc2cnc(Nc3ccc(O)cc3)nc21 |
| 2.11 | CCOCCn1c(=O)ccc2cnc(Nc3ccccc3)nc21 |
| 3.03 | O=c1ccc2cnc(Nc3ccccc3)nc2n1Cc1ccccc1 |

| log(10'6/IC50) | SMILES |
| --- | --- |
| 3.21 | CCn1c(=O)ccc2cnc(Nc3ccccc3)nc21 |
| 1.92 | CCNc1ncc2ccc(=O)n(CC)c2n1 |
| 3.84 | CC(C)n1c(=O)ccc2cnc(Nc3ccccc3)nc21 |
| 2.78 | O=c1ccc2cnc(Nc3ccccc3)nc2n1-c1ccccc1 |
| 2.74 | CCn1c(=O)ccc2cnc(Nc3ccc(O)c(OC)c3)nc21 |
| 2.63 | CCn1c(=O)ccc2cnc(Nc3ccc(OCCOC)cc3)nc21 |
| 2.48 | CCn1c(=O)ccc2cnc(NC3CCCCC3)nc21 |
| 3.76 | CN1CCN(c2ccc(Nc3ncc4ccc(=O)n(-c5ccccc5)c4n3)cc2)CC1 |
| 3.52 | CCn1c(=O)ccc2cnc(Nc3ccc(N4CCOCC4)cc3)nc21 |
| 5.4 | CN1CCN(c2ccc(Nc3ncc4ccc(=O)n(C5CCCCC5)c4n3)cc2)CC1 |
| 2.36 | CCn1c(=O)ccc2cnc(NC(C)C)nc21 |
| 2.39 | CCn1c(=O)ccc2cnc(Nc3ccc(OC)c(OC)c3)nc21 |
| 2.56 | CCn1c(=O)ccc2cnc(Nc3ccc(-n4cccc4)cc3)nc21 |
| 5.22 | CN1CCN(c2ccc(Nc3ncc4ccc(=O)n([C@H]5C[C@H]6CC[C@H]5C6)c4n3)cc2)CC1 (relative stereo) |
| 5.05 | CN1CCN(c2ccc(Nc3ncc4ccc(=O)n(C5CCCC5)c4n3)cc2)CC1 |
| 3.22 | CCn1c(=O)ccc2cnc(Nc3ccc(OC)cc3)nc21 |
